Reference: ChEMBL document CHEMBL1133260, “Synthesis and evaluation of aza HUN-7293” (Bioorg Med Chem Lett, 2000)
*1 amine or outer side, *2 acyl side, *3 side chain or, on linkers, in order; H or OH if unused. Where a SMILES comes first, the peptide text is derived from it. [ ]: non-standard residue; d: D form. NMeTrp(1-OMe) = CN[C@@H](Cc1cn(OC)c2ccccc12)C(=O)O; Butanoyl(2R-oxy,4-CN) = N#CCC[C@@H](O)C(=O)O; X1 = CCCC[C@@H](C)C[C@H](N[*:1])C(=O)[*:2]; NMeL = CN[C@@H](CC(C)C)C(=O)O; NMeA = CN[C@@H](C)C(=O)O

Tests used:
Assay type in all cases: functional, cell-based
HMEC [1] = test: The compound was tested for the ability to inhibit inducible cell adhesion molecule expression (ICAM-1) in primary human micro vascular cell line (HMEC-1)
HMEC [2] = test: The compound was tested for the ability to inhibit inducible cell adhesion molecule expression (VCAM-1) in primary human micro vascular cell line (HMEC-1)
HUVEC [3] = test: The compound was tested for the ability to inhibit inducible cell adhesion molecule expression (E-selectin) in primary human endothelial cell line (HUVEC)
HUVEC [4] = test: The compound was tested for the ability to inhibit inducible cell adhesion molecule expression (ICAM-1) in primary human endothelial cell line (HUVEC)
HUVEC [5] = test: The compound was tested for the ability to inhibit inducible cell adhesion molecule expression (VCAM-1) in primary human endothelial cell line (HUVEC)
HMEC [6] = test: The compound (derived from natural HUN-7293) was tested for the ability to inhibit inducible cell adhesion molecule expression (ICAM-1) in primary human micro vascular cell line (HMEC-1)
HMEC [7] = test: The compound (derived from natural HUN-7293) was tested for the ability to inhibit inducible cell adhesion molecule expression (VCAM-1) in primary human micro vascular cell line (HMEC-1)
HMEC [8] = test: The compound (synthetic) was tested for the ability to inhibit inducible cell adhesion molecule expression (VCAM-1) in primary human micro vascular cell line (HMEC-1)
HUVEC [9] = test: The compound (derived from natural HUN-7293) was tested for the ability to inhibit inducible cell adhesion molecule expression (E-selectin) in primary human endothelial cell line (HUVEC)
HUVEC [10] = test: The compound (derived from natural HUN-7293) was tested for the ability to inhibit inducible cell adhesion molecule expression (ICAM-1) in primary human endothelial cell line (HUVEC)
HUVEC [11] = test: The compound (derived from natural HUN-7293) was tested for the ability to inhibit inducible cell adhesion molecule expression (VCAM-1) in primary human endothelial cell line (HUVEC)
HUVEC [12] = test: The compound (synthetic) was tested for the ability to inhibit inducible cell adhesion molecule expression (E-selectin) in primary human endothelial cell line (HUVEC)
HUVEC [13] = test: The compound (synthetic) was tested for the ability to inhibit inducible cell adhesion molecule expression (ICAM-1) in primary human endothelial cell line (HUVEC)
HUVEC [14] = test: The compound (synthetic) was tested for the ability to inhibit inducible cell adhesion molecule expression (VCAM-1) in primary human endothelial cell line (HUVEC)

IC50 (HMEC [1]) [nM] | IC50 (HMEC [2]) [nM] | IC50 (HMEC [6]) [nM] | IC50 (HMEC [7]) [nM] | IC50 (HMEC [8]) [nM] | Structure (SMILES) | IC50 (HUVEC [3]) [nM] | IC50 (HUVEC [4]) [nM] | IC50 (HUVEC [5]) [nM] | IC50 (HUVEC [9]) [nM] | IC50 (HUVEC [10]) [nM] | IC50 (HUVEC [11]) [nM] | IC50 (HUVEC [12]) [nM] | IC50 (HUVEC [13]) [nM] | IC50 (HUVEC [14]) [nM]
24 | 1 | – | – | – | CCCC[C@@H](C)C[C@@H]1NC(=O)[C@H](Cc2cn(OC)c3ccccc23)N(C)C(=O)[C@H](CC(C)C)NC(=O)[C@H](CC(C)C)N(C)C(=O)[C@H](C[C@H](C)CCCC)NC(=O)[C@@H](CCC#N)OC(=O)[C@H](C)N(C)C1=O (cyclo(L[NMeTrp(1-OMe)][X1][NMeA][Butanoyl(2R-oxy,4-CN)][X1][NMeL])) | 44 | 26 | 3 | – | – | – | – | – | –
> 3000 | 550 | – | – | – | CCCC[C@@H](C)C[C@@H]1NC(=O)[C@@H](CCC#N)NC(=O)[C@H](C)N(C)C(=O)[C@H](C[C@H](C)CCCC)NC(=O)[C@H](Cc2cn(OC)c3ccccc23)N(C)C(=O)[C@H](CC(C)C)NC(=O)[C@@H](CC(C)C)N(C)C1=O | > 10000 | > 3000 | 560 | – | – | – | – | – | –
– | – | 540 | 22 | 58 | CCCC[C@@H](C)C[C@@H]1NC(=O)[C@H](Cc2cn(OC)c3ccccc23)N(C)C(=O)[C@H](CC(C)C)NC(=O)[C@H](CC(C)C)N(C)C(=O)[C@H](C[C@H](C)CCCC)NC(=O)[C@@H](CCC#N)NC(=O)[C@H](C)N(C)C1=O | – | – | – | 540 | 540 | 33 | 1000 | 950 | 64
